Reference: PubChem BioAssay (NCI)
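Where inhibition never reached the appropriate level, the endpoint shown equals the highest concentration tested. Otherwise, values were interpolated linearly from a five-concentration, 48-hour dose response in 96-well plates. TGI denotes the concentration required for complete inhibition of growth.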

Key:
Assay in all cases: inhibition of tumour cell growth, NCI panel, 48 h
[1] = system: OVCAR-3 ovarian
[2] = system: SF-295 CNS
[3] = system: UACC-257 melanoma
[4] = system: U251 CNS
[5] = system: IGROV1 ovarian
[6] = system: HL-60(TB) leukemia
[7] = system: HS 578T breast
[8] = system: CAKI-1 renal
[9] = system: HCT-116 colon
[10] = system: NCI-H460 lung
[11] = system: DU-145 prostate
[12] = system: MDA-N
[13] = system: EKVX NSCLC
[14] = system: A549 NSCLC
[15] = system: MALME-3M melanoma
[16] = system: OVCAR-4 ovarian
[17] = system: TK-10 renal
[18] = system: SNB-19 CNS
[19] = system: SN12C renal
[20] = system: SF-268 CNS
[21] = system: KM12 colon
[22] = system: T-47D breast
[23] = system: UACC-62 melanoma
[24] = system: NCI-H522 lung
[25] = system: PC-3 prostate
[26] = system: MCF7 breast
[27] = system: HCT-15 colon
[28] = system: SK-OV-3 ovarian
[29] = system: MDA-MB-435
[30] = system: M14 melanoma
[31] = system: SK-MEL-2 melanoma
[32] = system: SW-620 colon
[33] = system: SR leukemia
[34] = system: SNB-75 CNS
[35] = system: HCC-2998 colon
[36] = system: 786-0 renal
[37] = system: NCI-H226 lung
[38] = system: NCI-H23 lung
[39] = system: SK-MEL-28 melanoma
[40] = system: K-562 leukemia
[41] = system: SK-MEL-5 melanoma
[42] = system: HOP-92 NSCLC
[43] = system: HT29 colon
[44] = system: COLO 205 colon
[45] = system: OVCAR-8 ovarian
[46] = system: ACHN renal
[47] = system: OVCAR-5 ovarian
[48] = system: HOP-62 NSCLC
[49] = system: LOX IMVI melanoma
[50] = system: NCI/ADR-RES ovarian
[51] = system: SF-539 CNS
[52] = system: A498 renal
[53] = system: BT-549 breast

Measured: TGI

CC1=CC(c2ccccc2)OP1(=O)c1ccccc1 (stereo not drawn)
not listed: [53]
> 100 µM: all other assays above

CN(CCCNC(=O)c1cn(C)c2c1ccc1cc(Cl)ccc12)CCCNC(=O)c1cn(C)c2c1ccc1cc(Cl)ccc12
3.31 µM: [39]
5.6 µM: [12]
3.23 µM: [29]
3.35 µM: [19]
3.79 µM: [11]
2.97 µM: [25]
3.76 µM: [23]
3.75 µM: [30]
2.89 µM: [27]
> 27.2 µM: [16]
3.19 µM: [43]
9.14 µM: [8]
16.3 µM: [33]
43.6 µM: [52]
3.88 µM: [51]
> 100 µM: [3] | [10] | [13] | [17] | [18] | [37] | [38] | [40]
2.85 µM: [44]
19.3 µM: [42]
20 µM: [41]
30.9 µM: [53]
7.05 µM: [15]
3.47 µM: [46]
18.3 µM: [47]
3.25 µM: [20]
